From ChEMBL document CHEMBL5120794, “Development of 5-hydroxyl-1-azabenzanthrone derivatives as dual binding site and selective acetylcholinesterase inhibitors” (Eur J Med Chem, 2022)
The source made the active and inactive calls. The rule behind the calls is not given here.

What was measured:
[1] = Half life in Sprague-Dawley rat plasma at 10 mg/kg, IG measured at 10 to 1440 mins by LC-MS/MS analysis; assay type: ADME, organism-based; conditions: po, time 10-1440 min
[2] = AUC (0 to infinity) in Sprague-Dawley rat plasma at 2 mg/kg, iv measured at 10 to 1440 mins by LC-MS/MS analysis; assay type: ADME, organism-based; set-up: time lower 10 min, dose 2 mg/kg, time upper 1440 min, route iv
[3] = Toxicity in sopolamine-induced cognitive impairment ICR mouse model assessed as morphological change in heart at 10 mg/kg, ip administered for 14 consecutive days followed by scopolmaine-stimulation measured on day 21 by H and E staining method; assay type: organism-based; conditions: in vivo, 504 h, time 21 day
[4] = Clearance in Sprague-Dawley rat plasma at 10 mg/kg, IG measured at 10 to 1440 mins by LC-MS/MS analysis; assay type: ADME, organism-based; conditions: po, time 10-1440 min
[5] = AUC (0 to 24 hrs) in Sprague-Dawley rat plasma at 2 mg/kg, iv measured at 10 to 1440 mins by LC-MS/MS analysis; assay type: ADME, organism-based; set-up: time lower 10 min, dose 2 mg/kg, time upper 1440 min, route iv
PC-12 [6] = assay: Induction of apoptosis in rat PC-12 cells assessed as early apoptotic cells at 0.5 uM preincubated for 4 hrs followed by H2O2 treatment for another 24 hrs by Annexin V and PI double staining based flow cytometric analysis (RVB = 4.52 %); assay type: functional; conditions: time 28 hrs
in vitro = conditions: PAMPA
[7] = Toxicity in sopolamine-induced cognitive impairment ICR mouse model assessed as diarrhea at 10 mg/kg, ip administered for 14 consecutive days followed by scopolmaine-stimulation measured on day 21; assay type: organism-based; conditions: in vivo, 504 h, time 21 day
PC-12 [8] = assay: Cytoprotective activity against H2O2-induced oxidative damage in rat PC-12 cells assessed as cell viability at 1 uM preincubated for 4 hrs followed by H2O2 treatment for another 24 hrs by MTT assay; assay type: functional, cell-based; conditions: time 28.0 hrs
[9] = Clearance in Sprague-Dawley rat plasma at 2 mg/kg, iv measured at 10 to 1440 mins by LC-MS/MS analysis; assay type: ADME, organism-based; conditions: time 10-1440 min
[10] = Cmax in Sprague-Dawley rat plasma at 10 mg/kg, IG measured at 10 to 1440 mins by LC-MS/MS analysis; assay type: ADME, organism-based; set-up: dose 10 mg/kg, time 10-1440 min, route ig; conditions: po
Acetylcholinesterase = Acetylcholinesterase (Electrophorus electricus, UniProt O42275); assay: Inhibition of Electrophorus electricus AchE using […] as substrate incubated for 10 mins followed by substrate addition measured at 0 to 180 secs by Ellman's method
Chain of Acetylcholinesterase (O42275 whole entry): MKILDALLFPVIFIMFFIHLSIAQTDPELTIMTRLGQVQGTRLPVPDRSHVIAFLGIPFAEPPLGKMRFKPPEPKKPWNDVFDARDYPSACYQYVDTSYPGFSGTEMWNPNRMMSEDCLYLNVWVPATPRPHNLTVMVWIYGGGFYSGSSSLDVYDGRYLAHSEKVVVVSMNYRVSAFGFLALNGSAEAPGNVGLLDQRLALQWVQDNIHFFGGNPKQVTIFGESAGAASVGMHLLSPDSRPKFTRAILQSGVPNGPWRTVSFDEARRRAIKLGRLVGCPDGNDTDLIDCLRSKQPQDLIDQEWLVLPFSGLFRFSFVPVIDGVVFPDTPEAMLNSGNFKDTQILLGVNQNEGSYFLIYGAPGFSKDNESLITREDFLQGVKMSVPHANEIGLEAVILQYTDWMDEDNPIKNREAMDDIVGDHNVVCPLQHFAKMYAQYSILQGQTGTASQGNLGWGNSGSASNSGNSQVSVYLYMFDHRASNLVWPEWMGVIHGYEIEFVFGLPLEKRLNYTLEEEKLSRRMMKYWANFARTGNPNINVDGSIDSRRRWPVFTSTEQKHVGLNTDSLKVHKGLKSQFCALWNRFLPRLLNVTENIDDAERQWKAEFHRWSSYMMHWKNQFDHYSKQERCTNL

PC-12 [11] = assay: Induction of apoptosis in rat PC-12 cells assessed as viable cells at 0.1 uM preincubated for 4 hrs followed by H2O2 treatment for another 24 hrs by Annexin V and PI double staining based flow cytometric analysis (RVB = 87.1 %); assay type: functional; conditions: time 28 hrs, read-out: Activity
[12] = AUC (0 to infinity) in Sprague-Dawley rat plasma at 10 mg/kg, IG measured at 10 to 1440 mins by LC-MS/MS analysis; assay type: ADME, organism-based; set-up: time lower 10 min, dose 10 mg/kg, time upper 1440 min, route ig; conditions: po
[13] = Toxicity in sopolamine-induced cognitive impairment ICR mouse model assessed as morphological change in renal at 10 mg/kg, ip administered for 14 consecutive days followed by scopolmaine-stimulation measured on day 21 by H and E staining method; assay type: organism-based; conditions: in vivo, 504 h, time 21 day
Mus musculus [14] = assay: Antialzheimer activity in scopolamine-induced cognitive impairment ICR mouse model assessed as improvement of exploration ability at 2.5 to 10 mg/kg, ip administered for 14 consecutive days followed by scopolmaine-stimulation measured on day 21 by Y maze test; assay type: functional; conditions: dose 2.5-10 mg/kg, time 21 day
PC-12 [15] = assay: Induction of apoptosis in rat PC-12 cells assessed as late apoptotic cells at 0.1 uM preincubated for 4 hrs followed by H2O2 treatment for another 24 hrs by Annexin V and PI double staining based flow cytometric analysis (RVB = 5.46 %); assay type: functional; conditions: time 28 hrs
[16] = Tmax in Sprague-Dawley rat plasma at 2 mg/kg, iv measured at 10 to 1440 mins by LC-MS/MS analysis; assay type: ADME, organism-based; conditions: time 10-1440 min
[17] = Toxicity in sopolamine-induced cognitive impairment ICR mouse model assessed as morphological change in lung at 10 mg/kg, ip administered for 14 consecutive days followed by scopolmaine-stimulation measured on day 21 by H and E staining method; assay type: organism-based; conditions: in vivo, 504 h, time 21 day
[18] = MRT infinity in Sprague-Dawley rat plasma at 2 mg/kg, iv measured at 10 to 1440 mins by LC-MS/MS analysis; assay type: ADME, organism-based; conditions: time 10-1440 min
PC-12 [19] = assay: Induction of apoptosis in rat PC-12 cells assessed as early apoptotic cells at 0.3 uM preincubated for 4 hrs followed by H2O2 treatment for another 24 hrs by Annexin V and PI double staining based flow cytometric analysis (RVB = 4.52 %); assay type: functional; conditions: time 28 hrs
PC-12 [20] = assay: Induction of apoptosis in rat PC-12 cells assessed as early apoptotic cells at 0.1 uM preincubated for 4 hrs followed by H2O2 treatment for another 24 hrs by Annexin V and PI double staining based flow cytometric analysis (RVB = 4.52 %); assay type: functional; conditions: time 28 hrs
PC-12 [21] = assay: Induction of apoptosis in rat PC-12 cells assessed as late apoptotic cells at 0.5 uM preincubated for 4 hrs followed by H2O2 treatment for another 24 hrs by Annexin V and PI double staining based flow cytometric analysis (RVB = 5.46 %); assay type: functional; conditions: time 28 hrs
PC-12 [22] = assay: Inhibition of ROS production in rat PC-12 cells assessed as intracellular ROS level at 0.1 to 0.5 uM preincubated for 4 hrs followed by H2O2 treatment for another 24 hrs by flow cytometric analysis (RVB = 1.58); assay type: functional; conditions: dose 0.1-0.5 µM; time 28 hrs
PC-12 [23] = assay: Induction of apoptosis in rat PC-12 cells assessed as necrotic cells at 0.3 uM preincubated for 4 hrs followed by H2O2 treatment for another 24 hrs by Annexin V and PI double staining based flow cytometric analysis (RVB = 2.94 %); assay type: functional; conditions: time 28 hrs
[24] = AUC (0 to 24 hrs) in Sprague-Dawley rat plasma at 10 mg/kg, IG measured at 10 to 1440 mins by LC-MS/MS analysis; assay type: ADME, organism-based; set-up: dose 10 mg/kg, time 10-1440 min, route ig; conditions: po
PC-12 [25] = assay: Induction of apoptosis in rat PC-12 cells assessed as viable cells at 0.5 uM preincubated for 4 hrs followed by H2O2 treatment for another 24 hrs by Annexin V and PI double staining based flow cytometric analysis (RVB = 87.1 %); assay type: functional; conditions: time 28 hrs, read-out: Activity
PC-12 [26] = assay: Induction of apoptosis in rat PC-12 cells assessed as viable cells at 0.3 uM preincubated for 4 hrs followed by H2O2 treatment for another 24 hrs by Annexin V and PI double staining based flow cytometric analysis (RVB = 87.1 %); assay type: functional; conditions: time 28 hrs, read-out: Activity
[27] = Half life in Sprague-Dawley rat plasma at 2 mg/kg, iv measured at 10 to 1440 mins by LC-MS/MS analysis; assay type: ADME, organism-based; conditions: time 10-1440 min
[28] = Toxicity in sopolamine-induced cognitive impairment ICR mouse model assessed as emesis at 10 mg/kg, ip administered for 14 consecutive days followed by scopolmaine-stimulation measured on day 21; assay type: organism-based; conditions: in vivo, 504 h, time 21 day
PC-12 [29] = assay: Induction of apoptosis in rat PC-12 cells assessed as necrotic cells at 0.5 uM preincubated for 4 hrs followed by H2O2 treatment for another 24 hrs by Annexin V and PI double staining based flow cytometric analysis (RVB = 2.94 %); assay type: functional; conditions: time 28 hrs
[30] = Toxicity in sopolamine-induced cognitive impairment ICR mouse model assessed as morphological change in spleen at 10 mg/kg, ip administered for 14 consecutive days followed by scopolmaine-stimulation measured on day 21 by H and E staining method; assay type: organism-based; conditions: in vivo, 504 h, time 21 day
PC-12 [31] = assay: Induction of apoptosis in rat PC-12 cells assessed as late apoptotic cells at 0.3 uM preincubated for 4 hrs followed by H2O2 treatment for another 24 hrs by Annexin V and PI double staining based flow cytometric analysis (RVB = 5.46 %); assay type: functional; conditions: time 28 hrs
[32] = biological target: Amyloid-beta precursor protein (Homo sapiens) (UniProt P05067); assay: Inhibition of amyloid beta (1 to 42) (unknown origin) self-induced aggregation at 25 uM measured after 46 to 48 hrs by Thioflavin binding assay relative to control; conditions: time 46-48 hrs
Chain of Amyloid-beta precursor protein (Homo sapiens) (P05067 whole entry): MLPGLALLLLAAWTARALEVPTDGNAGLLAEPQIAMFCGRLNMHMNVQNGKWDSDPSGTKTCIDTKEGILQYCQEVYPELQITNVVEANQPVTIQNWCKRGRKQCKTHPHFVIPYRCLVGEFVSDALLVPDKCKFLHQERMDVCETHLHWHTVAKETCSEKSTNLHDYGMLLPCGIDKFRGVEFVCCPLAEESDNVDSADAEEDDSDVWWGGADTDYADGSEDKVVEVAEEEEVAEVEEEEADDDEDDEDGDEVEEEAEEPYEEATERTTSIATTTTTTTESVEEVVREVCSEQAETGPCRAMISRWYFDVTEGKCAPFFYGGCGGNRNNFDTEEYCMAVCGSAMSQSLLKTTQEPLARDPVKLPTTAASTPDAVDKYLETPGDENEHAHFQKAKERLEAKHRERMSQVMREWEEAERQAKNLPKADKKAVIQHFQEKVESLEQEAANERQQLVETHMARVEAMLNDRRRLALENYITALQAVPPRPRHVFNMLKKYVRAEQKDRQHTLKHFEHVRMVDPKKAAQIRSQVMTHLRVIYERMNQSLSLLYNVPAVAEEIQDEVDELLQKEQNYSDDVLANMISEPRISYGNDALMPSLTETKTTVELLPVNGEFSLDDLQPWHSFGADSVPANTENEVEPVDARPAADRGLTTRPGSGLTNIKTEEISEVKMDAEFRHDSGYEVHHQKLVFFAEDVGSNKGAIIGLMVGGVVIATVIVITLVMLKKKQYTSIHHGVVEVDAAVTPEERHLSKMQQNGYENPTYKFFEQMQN

PC-12 [33] = assay: Induction of apoptosis in rat PC-12 cells assessed as necrotic cells at 0.1 uM preincubated for 4 hrs followed by H2O2 treatment for another 24 hrs by Annexin V and PI double staining based flow cytometric analysis (RVB = 2.94 %); assay type: functional; conditions: time 28 hrs
[34] = MRT infinity in Sprague-Dawley rat plasma at 10 mg/kg, IG measured at 10 to 1440 mins by LC-MS/MS analysis; assay type: ADME, organism-based; conditions: po, time 10-1440 min
[35] = Toxicity in sopolamine-induced cognitive impairment ICR mouse model assessed as morphological change in liver at 10 mg/kg, ip administered for 14 consecutive days followed by scopolmaine-stimulation measured on day 21 by H and E staining method; assay type: organism-based; conditions: in vivo, 504 h, time 21 day
[36] = Cmax in Sprague-Dawley rat plasma at 2 mg/kg, iv measured at 10 to 1440 mins by LC-MS/MS analysis; assay type: ADME, organism-based; set-up: time lower 10 min, dose 2 mg/kg, time upper 1440 min, route iv
Mus musculus [37] = assay: Antialzheimer activity in ICR mouse assessed as reduction in scopolamine-induced cognitive impairment at 2.5 to 10 mg/kg, ip administered for 14 consecutive days followed by scopolmaine-stimulation measured on day 21 by Morris water maze test; assay type: functional, organism-based; conditions: dose 2.5-10 mg/kg, time 21.0 day, DDE = dose-dependent effect
[38] = Bioavailability in Sprague-Dawley rat plasma at 10 mg/kg, IG measured at 10 to 1440 mins by LC-MS/MS analysis; assay type: ADME, organism-based; conditions: po, time 10-1440 min
PC-12 [39] = assay: Cytoprotective activity against H2O2-induced oxidative damage in rat PC-12 cells assessed as cell viability at 1 to 3 uM preincubated for 4 hrs followed by H2O2 treatment for another 24 hrs by MTT assay; assay type: functional, cell-based; conditions: dose 1-3 µM, time 28.0 hrs
PC-12 [40] = assay: Antioxidant activity in H2O2-induced oxidative stress in rat PC-12 cells assessed as increase in expression of HO-1 level preincubated for 4 hrs followed by H2O2 treatment for another 24 hrs by Western blotting analysis; assay type: functional, cell-based; conditions: dose 0.5-3 µM, time 28.0 hrs, DDE = dose-dependent effect
Cholinesterase = Cholinesterase (Equus caballus, UniProt P81908)
Chain of Cholinesterase (P81908 whole entry): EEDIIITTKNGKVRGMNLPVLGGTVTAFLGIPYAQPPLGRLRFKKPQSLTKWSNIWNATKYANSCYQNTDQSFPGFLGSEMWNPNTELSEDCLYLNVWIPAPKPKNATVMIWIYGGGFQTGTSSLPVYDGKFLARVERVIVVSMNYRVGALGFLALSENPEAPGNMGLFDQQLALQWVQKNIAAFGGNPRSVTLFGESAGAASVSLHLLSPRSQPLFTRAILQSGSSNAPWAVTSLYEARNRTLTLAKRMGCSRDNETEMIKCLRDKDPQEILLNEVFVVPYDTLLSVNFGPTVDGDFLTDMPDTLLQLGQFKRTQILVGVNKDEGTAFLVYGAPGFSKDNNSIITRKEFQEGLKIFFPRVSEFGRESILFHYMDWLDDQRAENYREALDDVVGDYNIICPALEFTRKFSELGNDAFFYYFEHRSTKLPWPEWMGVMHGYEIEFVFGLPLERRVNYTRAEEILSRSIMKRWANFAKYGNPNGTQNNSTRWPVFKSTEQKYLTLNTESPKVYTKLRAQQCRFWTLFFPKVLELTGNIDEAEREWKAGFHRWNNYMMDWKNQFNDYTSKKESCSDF
Description: Inhibition of equine serum BchE using S-butyryl thiocholine iodide as substrate incubated for 10 mins followed by substrate addition measured at 0 to 180 secs by Ellman's method

[41] = Tmax in Sprague-Dawley rat plasma at 10 mg/kg, IG measured at 10 to 1440 mins by LC-MS/MS analysis; assay type: ADME, organism-based; conditions: po, time 10-1440 min
PC-12 [42] = assay: Antioxidant activity in H2O2-induced oxidative stress in rat PC-12 cells assessed as increase in expression of Nrf2 level preincubated for 4 hrs followed by H2O2 treatment for another 24 hrs by Western blotting analysis; assay type: functional, cell-based; conditions: dose 0.5-3 µM, time 28.0 hrs, DDE = dose-dependent effect
[43] = Toxicity in sopolamine-induced cognitive impairment ICR mouse model assessed as swimming motility impairment at 10 mg/kg, ip administered for 14 consecutive days followed by scopolmaine-stimulation measured on day 21; assay type: organism-based; conditions: in vivo, 504 h, time 21 day

CC1CCCCN1CCCOc1cc2c3c(nccc3c1)-c1ccccc1C2=O (stereo not drawn)
half-life [1]: 6.47 h
AUC(0-inf) [2]: 288 ng·h/mL
Activity [3]: Non-Toxic
CL/F [4]: 208 mL/min/kg
AUC(0-t) [5]: 254 ng·h/mL
Activity (PC-12 [6]): 3.71%
Papp (in vitro): 16.6 ×10⁻⁶ cm/s
Activity [7]: Non-Toxic
Activity (PC-12 [8]): Active
clearance [9]: 116 mL/min/kg
Cmax [10]: 68.5 ng/mL
IC50 (Acetylcholinesterase): 0.045 µM
viability at 0.1 µM (PC-12 [11]): 79.7%
AUC(0-inf) [12]: 841 ng·h/mL
Activity [13]: Non-Toxic
Activity (Mus musculus [14]): 45.98%
Activity (PC-12 [15]): 8.98%
Tmax [16]: 4.98 min
Activity [17]: Non-Toxic
MRT inf [18]: 2.79 h
Activity (PC-12 [19]): 3.99%
Activity (PC-12 [20]): 6.76%
Activity (PC-12 [21]): 4.81%
Activity (PC-12 [22]): 1.1
Activity (PC-12 [23]): 2.99%
AUC(0-t) [24]: 704 ng·h/mL
viability at 0.5 µM (PC-12 [25]): 88.5%
viability at 0.3 µM (PC-12 [26]): 86.9%
half-life [27]: 3.73 h
Activity [28]: Non-Toxic
Activity (PC-12 [29]): 2.96%
Activity [30]: Non-Toxic
Activity (PC-12 [31]): 6.09%
inhibition [32]: 35.3%
Activity (PC-12 [33]): 4.58%
MRT inf [34]: 6.48 h
Activity [35]: Non-Toxic
Cmax [36]: 103 ng/mL
Activity (Mus musculus [37]): Dde
bioavailability [38]: 55.5%
Activity (PC-12 [39]): Active
Activity (PC-12 [40]): Dde
IC50 (Cholinesterase): 19.7 µM
Tmax [41]: 3.33 h
Activity (PC-12 [42]): Dde
Activity [43]: Non-Toxic

O=C1c2ccccc2-c2nccc3cc(OCCCCN4CCOCC4)cc1c23
Activity (PC-12 [8]): Active
IC50 (Acetylcholinesterase): 7.3 µM
inhibition [32]: 13.1%
IC50 (Cholinesterase): > 100 µM

O=C1c2ccccc2-c2nccc3cc(OCCN4CCCCC4)cc1c23
Activity (PC-12 [8]): Active
IC50 (Acetylcholinesterase): 3.69 µM
inhibition [32]: 27.5%
IC50 (Cholinesterase): 6.71 µM

O=C1c2ccccc2-c2nccc3cc(OCCCN4CCOCC4)cc1c23
Activity (PC-12 [8]): Active
IC50 (Acetylcholinesterase): 10.2 µM
inhibition [32]: 23.5%
IC50 (Cholinesterase): > 100 µM
